Target: T1, bacteriophage T4 DNA polymerase (Enterobacteria phage T4, UniProt P04415)
T1 construct: made in house
T1 sequence (P04415 1-898): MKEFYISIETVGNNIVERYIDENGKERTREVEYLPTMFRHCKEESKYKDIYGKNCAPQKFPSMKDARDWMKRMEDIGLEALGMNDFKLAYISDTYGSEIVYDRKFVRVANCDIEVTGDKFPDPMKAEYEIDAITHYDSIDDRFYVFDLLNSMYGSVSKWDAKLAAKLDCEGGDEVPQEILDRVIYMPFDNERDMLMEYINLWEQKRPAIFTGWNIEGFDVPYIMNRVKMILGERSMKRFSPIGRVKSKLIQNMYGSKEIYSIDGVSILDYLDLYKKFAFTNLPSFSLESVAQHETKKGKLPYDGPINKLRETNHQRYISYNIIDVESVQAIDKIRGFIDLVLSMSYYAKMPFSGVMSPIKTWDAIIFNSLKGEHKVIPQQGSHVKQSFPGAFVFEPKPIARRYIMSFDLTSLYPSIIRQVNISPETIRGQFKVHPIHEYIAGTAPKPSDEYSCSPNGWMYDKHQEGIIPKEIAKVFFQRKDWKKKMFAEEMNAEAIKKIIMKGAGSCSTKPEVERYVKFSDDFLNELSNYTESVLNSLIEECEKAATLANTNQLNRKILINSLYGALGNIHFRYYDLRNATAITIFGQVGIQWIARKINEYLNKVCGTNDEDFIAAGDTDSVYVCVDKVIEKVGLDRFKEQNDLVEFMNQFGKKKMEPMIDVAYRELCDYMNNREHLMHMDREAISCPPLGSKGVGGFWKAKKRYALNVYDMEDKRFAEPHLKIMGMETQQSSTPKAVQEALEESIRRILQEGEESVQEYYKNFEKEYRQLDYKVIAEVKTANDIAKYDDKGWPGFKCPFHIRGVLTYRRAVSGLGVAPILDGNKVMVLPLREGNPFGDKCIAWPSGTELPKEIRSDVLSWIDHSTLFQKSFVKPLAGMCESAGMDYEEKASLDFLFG
Experiment: Counter-screen against bacteriophage T4 DNA polymerase
Assay type: biochemical
Conditions: DRC-2
Protocol: Codon-optimized, exonuclease-deficient Pf-apPOL was overexpressed in E. coli BL21 (DE3) and purified as described. The protein was dialysed against two, 1-liter changes of 20 mM Tris-HCl (pH 8.0), 400 mM NaCl, and 20% glycerol. Plasmodium bergei and Babesia bovis apPOLs (Pb-apPOL and Bb-apPOL, respectively) were codon-optimized, expressed, and purified as for Pf-apPOL[15]. Bacteriophage T4 DNA polymerase was purified as described. The DNA oligonucleotides used to make the high-throughput substrate were obtained from Integrated DNA Technologies. Deoxynucleotides were purchased from Strategene. All other materials came from Fisher Scientific.
Each compound was tested in a dose-response format to determine IC50 values. […] T4 DNA polymerase can be produced in large quantities, and is in the same family (B-family) as the replicative human DNA polymerases (α, δ, and ε)[20].

Row | Compound | % inhibition T4 10' (concentration 2.5) | % inhibition T4 10' (concentration 5) | % inhibition T4 10' (concentration 10) | % inhibition T4 10' (concentration 20) | % inhibition T4 10' (concentration 40) | % inhibition T4 10' (concentration 80) | % inhibition T4 40' (concentration 2.5) | % inhibition T4 40' (concentration 5) | % inhibition T4 40' (concentration 10) | % inhibition T4 40' (concentration 20) | % inhibition T4 40' (concentration 40) | % inhibition T4 40' (concentration 80) | % inhibition T4 90' (concentration 2.5) | % inhibition T4 90' (concentration 40) | % inhibition T4 90' (concentration 80) | % inhibition T4 180' (concentration 2.5) | % inhibition T4 180' (concentration 5) | % inhibition T4 180' (concentration 40) | % inhibition T4 180' (concentration 80) | % inhibition T4 90' (concentration 10)
1 | CCOC(=O)C1=C2c3cc(OC)c(OC)cc3CC(C)(C)N2C(=O)C1=O [KU0193659] | 9% | 6.54% | 23% | 29% | 38% | 45% | 9% | 6.54% | 23% | 29% | 38% | 45% | 8% | 37% | 44% | 9% | 8% | 37% | 44% | –
2 | CC1(C)CC(=O)C2=C(C1)OC1=C(C(=O)CC(C)(C)C1)C2c1ccc(O)cc1 [KU0194226] | – | – | – | – | 18% | – | – | 17% | 18% | – | 12% | 30% | – | 12% | 30% | 18% | 12% | 12% | 30% | 17%
3 | O=C1CCCC2=C1C(c1ccccn1)C1=C(CCCC1=O)O2 [KU0194228] | – | – | 18% | – | – | – | – | – | – | 18% | – | – | – | – | – | – | – | – | – | –

From paper PMC9090415, “Discovery of small molecule inhibitors of Plasmodium falciparum apicoplast DNA polymerase” (Journal of Enzyme Inhibition and Medicinal Chemistry, 2022)
